# From ChEMBL document CHEMBL1201862, “PubChem BioAssay data set” (2004)
#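 Interpolation was linear, between the two tested concentrations surrounding the appropriate level; five concentrations were tested over 48 hours in 96-well plates. GI50 = concentration required for 50% inhibition of growth.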 Active and inactive are the calls of the source. No stated cut-off is given here; in the data, active = GI50 up to about 1.1 µM and inactive = higher.
# What was measured:
# Assay in all cases: NCI tumour cell line growth inhibition, 48 h
# PC-3 = test system: PC-3
# NCI-H522 = test system: NCI-H522
# 786-0 = test system: 786-0
# MDA-N = test system: MDA-N
# CAKI-1 = test system: CAKI-1
# HCC 2998 = test system: HCC 2998
# IGROV-1 = test system: IGROV-1
# OVCAR-3 = test system: OVCAR-3
# SNB-75 = test system: SNB-75
# SF-539 = test system: SF-539
# ACHN = test system: ACHN
# K562 = test system: K562
# A498 = test system: A498
# HOP-62 = test system: HOP-62
# SF-268 = test system: SF-268
# TK-10 = test system: TK-10
# OVCAR-8 = test system: OVCAR-8
# KM12 = test system: KM12
# MDA-MB-435 = test system: MDA-MB-435
# U-251 = test system: U-251
Structure (SMILES),GI50 (PC-3),GI50 (NCI-H522),GI50 (786-0),GI50 (MDA-N),GI50 (CAKI-1),GI50 (HCC 2998),GI50 (IGROV-1),GI50 (OVCAR-3),GI50 (SNB-75),GI50 (SF-539),GI50 (ACHN),GI50 (K562),GI50 (A498),GI50 (HOP-62),GI50 (SF-268),GI50 (TK-10),GI50 (OVCAR-8),GI50 (KM12),GI50 (MDA-MB-435),GI50 (U-251)
COC(=O)/C=C\C(C#N)(C#N)/N=C/c1ccccc1,5.94 µM (inactive),0.471 µM (active),1.63 µM (inactive),4.44 µM (inactive),2.86 µM (inactive),19.4 µM (inactive),12.9 µM (inactive),2.11 µM (inactive),6.35 µM (inactive),3.78 µM (inactive),2.3 µM (inactive),3.37 µM (inactive),18.7 µM (inactive),18.5 µM (inactive),4.95 µM (inactive),2.25 µM (inactive),1.91 µM (inactive),17.5 µM (inactive),2.33 µM (inactive),17.7 µM (inactive)
[N-]=[N+]=Nc1ccc2c(c1)Sc1ccccc1N2CCCCN1CCN(C(=O)CCNC(=O)Cc2ccc(C(=O)c3ccccc3)cc2)CC1,3.1 µM (inactive),2.45 µM (inactive),3.76 µM (inactive),3.75 µM (inactive),8.61 µM (inactive),2.53 µM (inactive),6.1 µM (inactive),4.5 µM (inactive),5.21 µM (inactive),6.27 µM (inactive),3.61 µM (inactive),1.68 µM (inactive),10 µM (inactive),8.45 µM (inactive),3.84 µM (inactive),13.2 µM (inactive),7.03 µM (inactive),3.31 µM (inactive),2.2 µM (inactive),4.23 µM (inactive)
Cc1oc2c(cc(O)c3cc(O)ccc32)c2cccc1-2,> 100 µM (inactive),35.2 µM (inactive),> 100 µM (inactive),> 100 µM (inactive),> 100 µM (inactive),> 100 µM (inactive),> 100 µM (inactive),> 100 µM (inactive),> 100 µM (inactive),> 100 µM (inactive),> 100 µM (inactive),> 100 µM (inactive),> 100 µM (inactive),> 100 µM (inactive),> 100 µM (inactive),> 100 µM (inactive),> 100 µM (inactive),> 100 µM (inactive),> 100 µM (inactive),> 100 µM (inactive)
O=C(/C=C/c1cccc(Oc2ccccc2)c1)NCc1ccc(C(=O)NCc2ccccc2)cc1,> 100 µM (inactive),98.9 µM (inactive),29 µM (inactive),> 100 µM (inactive),43.8 µM (inactive),> 100 µM (inactive),79.8 µM (inactive),68.5 µM (inactive),12.1 µM (inactive),0.865 µM (active),71 µM (inactive),> 100 µM (inactive),51.5 µM (inactive),2.96 µM (inactive),> 100 µM (inactive),46.5 µM (inactive),14.1 µM (inactive),> 100 µM (inactive),> 100 µM (inactive),38.1 µM (inactive)
Cc1cc(O)nc2cc3oc4ccccc4c3cc12,> 100 µM (inactive),34.1 µM (inactive),25.2 µM (inactive),> 100 µM (inactive),> 100 µM (inactive),2.72 µM (inactive),> 63.7 µM (inactive),> 33.6 µM (inactive),> 100 µM (inactive),39.8 µM (inactive),24.2 µM (inactive),30.9 µM (inactive),> 100 µM (inactive),> 100 µM (inactive),28.1 µM (inactive),30.6 µM (inactive),> 100 µM (inactive),70.1 µM (inactive),> 88.1 µM (inactive),17.1 µM (inactive)
CCOc1cc(NC(C)=O)ccc1C(=O)NNC(=O)c1ccccc1OC(C)=O,11.1 µM (inactive),5.83 µM (inactive),4.53 µM (inactive),12.5 µM (inactive),3.21 µM (inactive),4.95 µM (inactive),3.03 µM (inactive),3.24 µM (inactive),8.05 µM (inactive),12.5 µM (inactive),3.79 µM (inactive),3.02 µM (inactive),16.1 µM (inactive),8.61 µM (inactive),7.24 µM (inactive),1.5 µM (inactive),6.3 µM (inactive),7.08 µM (inactive),15 µM (inactive),4.69 µM (inactive)
Nc1cccc(C2CCCc3c2[nH]c2ccccc32)c1 (stereo not given),16.1 µM (inactive),15.8 µM (inactive),18.2 µM (inactive),17.5 µM (inactive),23.9 µM (inactive),22.6 µM (inactive),17.3 µM (inactive),26.7 µM (inactive),11.9 µM (inactive),20.3 µM (inactive),25 µM (inactive),13.6 µM (inactive),15 µM (inactive),30.5 µM (inactive),17.2 µM (inactive),32.4 µM (inactive),17.7 µM (inactive),17.5 µM (inactive),17.3 µM (inactive),14.6 µM (inactive)
O=C1C(Cl)=C(N2CCN(c3ccccn3)CC2)C(=O)c2c(O)ccc(O)c21,1.94 µM (inactive),1.74 µM (inactive),1.25 µM (inactive),1.21 µM (inactive),2.08 µM (inactive),2.51 µM (inactive),1.63 µM (inactive),1.95 µM (inactive),1.89 µM (inactive),1.79 µM (inactive),2.42 µM (inactive),0.512 µM (active),4.25 µM (inactive),4.67 µM (inactive),2.59 µM (inactive),2.29 µM (inactive),2.12 µM (inactive),3.1 µM (inactive),4.97 µM (inactive),8.49 µM (inactive)
CCN1/C(=C/c2ccc3ccccc3[n+]2CC)C=Cc2ccccc21,0.445 µM (active),0.266 µM (active),2.32 µM (inactive),0.39 µM (active),10 µM (inactive),0.482 µM (active),2.51 µM (inactive),0.269 µM (active),0.35 µM (active),1.89 µM (inactive),2.33 µM (inactive),0.262 µM (active),2.13 µM (inactive),0.805 µM (active),1.27 µM (inactive),2.81 µM (inactive),0.555 µM (active),0.149 µM (active),0.316 µM (active),0.131 µM (active)
O=C(COc1ccc(OCC(=O)N2C(=O)CN(c3ccccc3)C2=S)cc1)N1C(=O)CN(c2ccccc2)C1=S,> 25 µM (inactive),> 61.2 µM (inactive),> 57 µM (inactive),> 63.1 µM (inactive),> 57.7 µM (inactive),> 58.5 µM (inactive),> 25 µM (inactive),49.3 µM (inactive),> 25 µM (inactive),> 100 µM (inactive),> 53.3 µM (inactive),> 100 µM (inactive),> 56.5 µM (inactive),> 53.2 µM (inactive),> 59.4 µM (inactive),> 54.7 µM (inactive),> 55.2 µM (inactive),> 51.5 µM (inactive),> 55.3 µM (inactive),> 51.6 µM (inactive)
CN(C)Cc1cc(/N=N/c2ccc(Cl)cc2)ccc1O,14.7 µM (inactive),13.5 µM (inactive),12.8 µM (inactive),19.5 µM (inactive),15.4 µM (inactive),14.6 µM (inactive),15.8 µM (inactive),11.5 µM (inactive),14.9 µM (inactive),18.1 µM (inactive),15.3 µM (inactive),17.3 µM (inactive),16.4 µM (inactive),10.1 µM (inactive),14.8 µM (inactive),15 µM (inactive),16.9 µM (inactive),17.3 µM (inactive),16.7 µM (inactive),17.4 µM (inactive)
O=C(CSc1nc2ccc(I)cc2c(=O)n1Cc1ccccc1)NNC(=O)c1ccccc1,10.7 µM (inactive),6.4 µM (inactive),8.97 µM (inactive),25.1 µM (inactive),2.89 µM (inactive),33.8 µM (inactive),9.27 µM (inactive),19 µM (inactive),2.38 µM (inactive),2.92 µM (inactive),17.7 µM (inactive),2.2 µM (inactive),11.6 µM (inactive),8.02 µM (inactive),6.79 µM (inactive),11.8 µM (inactive),8.3 µM (inactive),17.5 µM (inactive),35 µM (inactive),28 µM (inactive)
CC(=O)Oc1c2c(c(CC=C(C)C)c3c1C(=O)C1=C[C@@H]4CC5C(C)(C)OC(C/C=C(/C)C(=O)O)(C4=O)[C@@]15O3)OC(C)(CCC=C(C)C)C=C2 (stereo not given in full),0.244 µM (active),0.0796 µM (active),0.0989 µM (active),0.16 µM (active),0.174 µM (active),0.61 µM (active),0.0998 µM (active),0.308 µM (active),0.323 µM (active),0.0986 µM (active),0.102 µM (active),0.409 µM (active),0.65 µM (active),0.832 µM (active),0.408 µM (active),0.134 µM (active),0.184 µM (active),0.188 µM (active),0.161 µM (active),0.0918 µM (active)
O=C(Nc1ccc2ccccc2c1)Nn1cnnc1,> 100 µM (inactive),> 100 µM (inactive),> 100 µM (inactive),> 100 µM (inactive),> 100 µM (inactive),> 100 µM (inactive),> 100 µM (inactive),> 100 µM (inactive),> 100 µM (inactive),> 100 µM (inactive),> 100 µM (inactive),> 100 µM (inactive),> 100 µM (inactive),> 100 µM (inactive),> 100 µM (inactive),> 100 µM (inactive),> 100 µM (inactive),> 100 µM (inactive),> 100 µM (inactive),> 100 µM (inactive)
